Article PMC7523345 (Investigational new drugs, 2018)

Experiments:
advanced solid tumours = assay: Tumour response by RECIST 1.1; format: in vivo, human
[1] = system: human T-ALL xenograft models; details: single agent; nonclinical; cited from earlier work
solid tumour xenografts = details: including 3 breast, 1 NSCLC, 1 pancreatic carcinoma; nonclinical; cited from earlier work
Hes1 = Hes1 expression in peripheral blood; format: in vivo, human; details: after 2 weeks of dosing at 1.2 mg QD and 1.5 mg QD
[2] = in vivo; cited from earlier work
[3] = molecular target: Notch receptors (Notch1 to 4); details: all 4 mammalian Notch receptors (Notch1 to 4); nonclinical; cited from earlier work

SMILES: Cc1cccc2c1NC(=O)[C@@H](NC(=O)[C@H](CCC(F)(F)F)[C@H](CCC(F)(F)F)C(N)=O)N=C2c1cccc(F)c1 [BMS-986115]
- Subjects with progressive disease as best tumour response (advanced solid tumours; 36 treated subjects): 58%
- Subjects with stable disease (SD) as best tumour response (advanced solid tumours; 36 treated subjects): 31%
- Subjects with SD for more than 6 months (advanced solid tumours; 36 treated subjects, both arms): 5 subjects
- Patients with stable disease for more than 6 months (advanced solid tumours; Arm A): Three
- Patients with stable disease for more than 6 months (advanced solid tumours; Arm B): 2 patients
- Patients with prolonged SD of >6 months with disease shrinkage (advanced solid tumours; dose levels that are pharmacodynamically active): 3 patients
- maximum tumor shrinkage (advanced solid tumours; patient with clear cell renal cell carcinoma, 1.2 mg QD, after ~5.5 months of treatment): 23.9%
- maximum disease shrinkage (advanced solid tumours; patient with fibromatosis, 1.5 mg QD, after ~9 months of treatment): 16.5%
- maximum tumor shrinkage (advanced solid tumours; patient with retroperitoneal liposarcoma, 2 mg QD, after ~7.5 months of treatment): 13.8%
- Efficacy in human T-ALL xenograft models [1]: effective as a single agent
- Solid tumour xenografts with anti-tumour activity (solid tumour xenografts): 5 out of 7
- Peak inhibition of geometric mean relative expression of Hes1 (Hes1): > 80%
- Main pharmacological toxicities in animal studies [2]: dose-dependent gastrointestinal (GI) toxicity, lymphoid depletion, and interruption of ovarian follicle maturation
- median inhibitory concentrations (IC50s) [3]: low nanomolar
